Key:
Cpz10 = target: T1, Cpz10 (Streptomyces sp. MK730-62F2, UniProt C4NCJ7); assay: X-ray crystal structure; assay type: binding
T1 construct: pET28a, E. coli BL21(DE3), His6-tag kept; homodimer in solution
T1 sequence (C4NCJ7 1-182): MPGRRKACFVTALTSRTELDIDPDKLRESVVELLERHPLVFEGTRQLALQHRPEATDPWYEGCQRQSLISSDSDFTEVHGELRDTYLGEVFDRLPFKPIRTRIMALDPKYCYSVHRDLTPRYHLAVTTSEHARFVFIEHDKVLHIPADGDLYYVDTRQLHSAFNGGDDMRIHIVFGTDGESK

Cpz27 = target: T2, Cpz27 (Streptomyces sp. MK730-62F2, UniProt C4NCL4); assay: LC-MS turnover; assay type: biochemical; conditions: 1 mM, with 500 μM compound 13, 1 mM Mg, pH 8.0, 28 °C
T2 construct: pGM1202, Streptomyces lividans TK64, His6-tag kept
T2 sequence (C4NCL4 entry or part of it): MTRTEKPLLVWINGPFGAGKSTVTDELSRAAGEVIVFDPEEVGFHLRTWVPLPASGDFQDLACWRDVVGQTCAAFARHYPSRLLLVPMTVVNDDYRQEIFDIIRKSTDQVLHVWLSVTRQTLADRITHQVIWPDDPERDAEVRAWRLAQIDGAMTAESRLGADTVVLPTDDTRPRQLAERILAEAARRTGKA

Cpz15 = target: T3, Cpz15 (Streptomyces sp. MK730-62F2, UniProt C4NCK2); assay: LC-MS turnover; assay type: biochemical; conditions: 1 mM UMP, 1.5 mM αKG, ascorbate, FeSO4, pH 8.0, 28 °C; product uridine 5'-aldehyde
T3 construct: pET28a, E. coli BL21(DE3), His6-tag kept
T3 sequence (C4NCK2 1-274): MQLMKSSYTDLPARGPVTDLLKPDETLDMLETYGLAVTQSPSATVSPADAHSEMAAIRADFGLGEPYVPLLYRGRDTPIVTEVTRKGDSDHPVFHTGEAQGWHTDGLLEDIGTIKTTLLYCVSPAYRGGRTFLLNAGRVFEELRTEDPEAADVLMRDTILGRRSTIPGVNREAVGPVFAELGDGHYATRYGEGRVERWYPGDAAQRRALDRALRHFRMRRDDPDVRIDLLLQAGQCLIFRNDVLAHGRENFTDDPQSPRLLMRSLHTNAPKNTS

[1] = substrate: CSCC[C@H](N)C(=O)O; assay: LC assay, Michaelis-Menten; assay type: biochemical, Streptomyces sp. MK730-62F2; conditions: pseudo-first order condition, αKG, ascorbate, FeSO4, pH 7.5, 28 °C, sulfoxidation to MSO

**Q.** How did the X-ray crystal structure (Cpz10; formed in crystal from soaked αKG, with compound 12 and Fe1) turn out when `O=C(O)CCC(=O)O` [succinic acid] was run?
**A.** Its X-ray crystal structure is “αKG soaked in the crystals has been converted to succinic acid”.

**Q.** `Nc1ncnc2c1ncn2[C@@H]1O[C@H](COP(=O)(O)OP(=O)(O)OP(=O)(O)O)[C@@H](O)[C@H]1O` [ATP] was tested. Which LC-MS turnover (Cpz27) did it give?
**A.** The LC-MS turnover was “at the expense of one molecule of ATP”.

**Q.** Which LC-MS turnover (Cpz15) does the source give for `O=c1ccn([C@@H]2O[C@H](COP(=O)(O)O)[C@@H](O)[C@H]2O)c(=O)[nH]1` [UMP] here?
**A.** The LC-MS turnover was “a new peak emerge on the LC trace concomitant with dwindling of UMP”.

**Q.** Which X-ray crystal structure (Cpz10; Fe1 present, 1.9 Å, bidentate to Fe1) does the source give for `O=C(O)CCC(=O)C(=O)O` [αKG] here?
**A.** Its X-ray crystal structure is “two complexes (with αKG (PDB code: 7V4M)”.

B1: Cpz10 (Streptomyces sp. MK730-62F2) (protein)
chain: MPGRRKACFVTALTSRTELDIDPDKLRESVVELLERHPLVFEGTRQLALQHRPEATDPWYEGCQRQSLISSDSDFTEVHGELRDTYLGEVFDRLPFKPIRTRIMALDPKYCYSVHRDLTPRYHLAVTTSEHARFVFIEHDKVLHIPADGDLYYVDTRQLHSAFNGGDDMRIHIVFGTDGESK
notes: pET28a, E. coli BL21(DE3), His6-tag kept; homodimer in solution
**Q.** With B1 as the molecule, how does the Km [1] read?
**A.** The Km was 892.1 ± 9 µM.

**Q.** What about the kcat [1] of the same molecule?
**A.** The kcat was 0.977 ± 0.013 s⁻¹.

— PMC9814697, “β-Hydroxylation of α-amino-β-hydroxylbutanoyl-glycyluridine catalyzed by a nonheme hydroxylase ensures the maturation of caprazamycin” (Communications Chemistry, 2022)
